# Measured values from ChEMBL document CHEMBL1201862, “PubChem BioAssay data set” (2004).
#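 Following 48 hours of exposure in 96-well plates, responses at five concentrations were used to interpolate endpoints linearly. GI50 = concentration required for 50% inhibition of growth.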 The source made the active and inactive calls. Cut-off read from the data, not from the text of the source: active = GI50 up to about 1.1 µM and inactive = higher.
# How the values were obtained:
# Assay in all cases: NCI tumour cell line growth inhibition, 48 h
# HOP-92 = tested on: HOP-92
# SK-MEL-5 = tested on: SK-MEL-5
# XF498 = tested on: XF498
# HL-60 = tested on: HL-60
# SK-MEL-28 = tested on: SK-MEL-28
# DMS-273 = tested on: DMS-273
# Malme-3M = tested on: Malme-3M
# RXF 631 = tested on: RXF 631
# SR = tested on: SR
# SNB-75 = tested on: SNB-75
# SN12C = tested on: SN12C
# OVCAR-3 = tested on: OVCAR-3
# OVCAR-5 = tested on: OVCAR-5
# DMS-114 = tested on: DMS-114
# NCI-H522 = tested on: NCI-H522
# SNB-19 = tested on: SNB-19
# A549 = tested on: A549
# U-251 = tested on: U-251
# EKVX = tested on: EKVX
# UO-31 = tested on: UO-31
# TK-10 = tested on: TK-10
# UACC-62 = tested on: UACC-62
# LXFL 529 = tested on: LXFL 529
# SW-620 = tested on: SW-620
# NCI-H23 = tested on: NCI-H23
# COLO 205 = tested on: COLO 205
# SK-OV-3 = tested on: SK-OV-3
# SF-539 = tested on: SF-539
# M19-MEL = tested on: M19-MEL
# M14 = tested on: M14
# OVCAR-8 = tested on: OVCAR-8
# A498 = tested on: A498
# DLD-1 = tested on: DLD-1
# SK-MEL-2 = tested on: SK-MEL-2
# HT-29 = tested on: HT-29
# HOP-18 = tested on: HOP-18
# SF-268 = tested on: SF-268
# SNB-78 = tested on: SNB-78
# K562 = tested on: K562
# 786-0 = tested on: 786-0
# ACHN = tested on: ACHN
# SF-295 = tested on: SF-295
# KM-20L2 = tested on: KM-20L2
# HCC 2998 = tested on: HCC 2998
# IGROV-1 = tested on: IGROV-1
# OVCAR-4 = tested on: OVCAR-4
# UACC-257 = tested on: UACC-257
# HOP-62 = tested on: HOP-62
# MOLT-4 = tested on: MOLT-4
# NCI-H226 = tested on: NCI-H226
# CAKI-1 = tested on: CAKI-1
# HCT-116 = tested on: HCT-116
# KM12 = tested on: KM12
# LOX IMVI = tested on: LOX IMVI
# RXF 393 = tested on: RXF 393
# CCRF-CEM = tested on: CCRF-CEM
# Hs-578T = tested on: Hs-578T
# MDA-MB-231 = tested on: MDA-MB-231
# RPMI-8226 = tested on: RPMI-8226
# DU-145 = tested on: DU-145
# BT-549 = tested on: BT-549
# MDA-N = tested on: MDA-N
# T47D = tested on: T47D
# HCT-15 = tested on: HCT-15
# MCF7 = tested on: MCF7
# PC-3 = tested on: PC-3
# NCI-H460 = tested on: NCI-H460
# MDA-MB-435 = tested on: MDA-MB-435
compound,measurement,setting,value
CCCCCCC1=NOC(C(c2cc[nH]c2)N(C)[C@H](C(=O)OC)C(C)C)C1 (stereo partly specified),GI50,HOP-92,51.4 µM (inactive)
same,GI50,SK-MEL-5,41.8 µM (inactive)
same,GI50,XF498,35.3 µM (inactive)
same,GI50,HL-60,27.3 µM (inactive)
same,GI50,SK-MEL-28,75 µM (inactive)
same,GI50,DMS-273,25.8 µM (inactive)
same,GI50,Malme-3M,70.1 µM (inactive)
same,GI50,RXF 631,36.6 µM (inactive)
same,GI50,SR,23.6 µM (inactive)
same,GI50,SNB-75,55.6 µM (inactive)
same,GI50,SN12C,20.6 µM (inactive)
same,GI50,OVCAR-3,25.4 µM (inactive)
same,GI50,OVCAR-5,> 100 µM (inactive)
same,GI50,DMS-114,33.3 µM (inactive)
same,GI50,NCI-H522,16.1 µM (inactive)
same,GI50,SNB-19,65.9 µM (inactive)
same,GI50,A549,62.5 µM (inactive)
same,GI50,U-251,49.5 µM (inactive)
same,GI50,EKVX,19.8 µM (inactive)
same,GI50,UO-31,61.7 µM (inactive)
same,GI50,TK-10,35.4 µM (inactive)
same,GI50,UACC-62,37.1 µM (inactive)
same,GI50,LXFL 529,46.8 µM (inactive)
same,GI50,SW-620,26.6 µM (inactive)
same,GI50,NCI-H23,47.8 µM (inactive)
same,GI50,COLO 205,15.3 µM (inactive)
same,GI50,SK-OV-3,> 100 µM (inactive)
same,GI50,SF-539,57 µM (inactive)
same,GI50,M19-MEL,32 µM (inactive)
same,GI50,M14,51.8 µM (inactive)
same,GI50,OVCAR-8,42.2 µM (inactive)
same,GI50,A498,> 100 µM (inactive)
same,GI50,DLD-1,34.1 µM (inactive)
same,GI50,SK-MEL-2,25.8 µM (inactive)
same,GI50,HT-29,34 µM (inactive)
same,GI50,HOP-18,58.1 µM (inactive)
same,GI50,SF-268,> 100 µM (inactive)
same,GI50,SNB-78,21.3 µM (inactive)
same,GI50,K562,39.2 µM (inactive)
same,GI50,786-0,58.9 µM (inactive)
same,GI50,ACHN,34.4 µM (inactive)
same,GI50,SF-295,47.1 µM (inactive)
same,GI50,KM-20L2,39 µM (inactive)
same,GI50,HCC 2998,33.9 µM (inactive)
same,GI50,IGROV-1,65.8 µM (inactive)
same,GI50,OVCAR-4,39 µM (inactive)
same,GI50,UACC-257,37.7 µM (inactive)
same,GI50,HOP-62,> 100 µM (inactive)
same,GI50,MOLT-4,19.4 µM (inactive)
same,GI50,NCI-H226,51.1 µM (inactive)
same,GI50,CAKI-1,> 100 µM (inactive)
same,GI50,HCT-116,34.4 µM (inactive)
same,GI50,KM12,21.9 µM (inactive)
same,GI50,LOX IMVI,26.1 µM (inactive)
same,GI50,RXF 393,52.7 µM (inactive)
same,GI50,CCRF-CEM,16.7 µM (inactive)
CC1CC(C)CC(C)C(O)/C(C#N)=C/C=C/CC(C2CCCC2C(=O)O)OC(=O)CC(O)C(C)C1 (stereo unspecified),GI50,Hs-578T,< 0.01 µM (active)
same,GI50,HOP-92,< 0.01 µM (active)
same,GI50,MDA-MB-231,< 0.0109 µM (active)
same,GI50,XF498,< 0.0164 µM (active)
same,GI50,HL-60,0.0137 µM (active)
same,GI50,SK-MEL-28,< 0.0111 µM (active)
same,GI50,DMS-273,0.0164 µM (active)
same,GI50,RPMI-8226,< 0.0305 µM (active)
same,GI50,Malme-3M,0.0286 µM (active)
same,GI50,RXF 631,0.0317 µM (active)
same,GI50,SR,< 0.0116 µM (active)
same,GI50,DU-145,0.111 µM (active)
same,GI50,SNB-75,0.0175 µM (active)
same,GI50,SN12C,0.029 µM (active)
same,GI50,OVCAR-5,< 0.01 µM (active)
same,GI50,DMS-114,< 0.01 µM (active)
same,GI50,NCI-H522,< 0.01 µM (active)
same,GI50,SNB-19,0.0135 µM (active)
same,GI50,A549,0.053 µM (active)
same,GI50,U-251,0.0115 µM (active)
same,GI50,EKVX,0.064 µM (active)
same,GI50,UO-31,0.012 µM (active)
same,GI50,TK-10,0.0301 µM (active)
same,GI50,UACC-62,0.0101 µM (active)
same,GI50,LXFL 529,< 0.01 µM (active)
same,GI50,SW-620,0.0335 µM (active)
same,GI50,BT-549,0.0143 µM (active)
same,GI50,COLO 205,0.0225 µM (active)
same,GI50,SK-OV-3,0.0161 µM (active)
same,GI50,MDA-N,< 0.0112 µM (active)
same,GI50,SF-539,< 0.01 µM (active)
same,GI50,M19-MEL,0.0202 µM (active)
same,GI50,M14,< 0.0121 µM (active)
same,GI50,OVCAR-8,0.0192 µM (active)
same,GI50,A498,0.0105 µM (active)
same,GI50,T47D,< 0.01 µM (active)
same,GI50,DLD-1,< 0.0122 µM (active)
same,GI50,SK-MEL-2,< 0.01 µM (active)
same,GI50,HOP-18,0.0189 µM (active)
same,GI50,SF-268,0.0133 µM (active)
same,GI50,SNB-78,0.0223 µM (active)
same,GI50,786-0,< 0.0126 µM (active)
same,GI50,ACHN,< 0.0194 µM (active)
same,GI50,SF-295,0.0303 µM (active)
same,GI50,KM-20L2,0.0362 µM (active)
same,GI50,HCC 2998,0.0151 µM (active)
same,GI50,HCT-15,0.0131 µM
same,GI50,IGROV-1,< 0.0118 µM (active)
same,GI50,OVCAR-4,0.0424 µM (active)
same,GI50,UACC-257,0.0154 µM (active)
same,GI50,MCF7,0.0102 µM (active)
same,GI50,HOP-62,0.0148 µM (active)
same,GI50,MOLT-4,0.022 µM (active)
same,GI50,NCI-H226,0.0158 µM (active)
same,GI50,PC-3,0.0251 µM (active)
same,GI50,CAKI-1,< 0.01 µM (active)
same,GI50,NCI-H460,0.0284 µM (active)
same,GI50,HCT-116,0.0223 µM (active)
same,GI50,LOX IMVI,< 0.0109 µM (active)
same,GI50,MDA-MB-435,< 0.01 µM (active)
same,GI50,RXF 393,< 0.01 µM (active)
same,GI50,CCRF-CEM,0.0118 µM (active)
O=C(O)/C(Cl)=C(/Cl)C(=O)Nc1cccc(Cl)c1,GI50,Hs-578T,24.8 µM (inactive)
same,GI50,HOP-92,14.6 µM (inactive)
same,GI50,SK-MEL-5,19 µM (inactive)
same,GI50,MDA-MB-231,14.6 µM (inactive)
same,GI50,XF498,18.1 µM (inactive)
same,GI50,HL-60,8.91 µM (inactive)
same,GI50,SK-MEL-28,17.9 µM (inactive)
same,GI50,DMS-273,12.9 µM (inactive)
same,GI50,RPMI-8226,12.1 µM (inactive)
same,GI50,Malme-3M,16.9 µM (inactive)
same,GI50,RXF 631,22 µM (inactive)
same,GI50,SR,8.24 µM (inactive)
same,GI50,DU-145,> 100 µM (inactive)
same,GI50,SNB-75,17.9 µM (inactive)
same,GI50,SN12C,20 µM (inactive)
same,GI50,OVCAR-3,16.7 µM (inactive)
same,GI50,OVCAR-5,19.7 µM (inactive)
same,GI50,DMS-114,16.6 µM (inactive)
same,GI50,NCI-H522,4.35 µM (inactive)
same,GI50,SNB-19,31.7 µM (inactive)
same,GI50,A549,48.1 µM (inactive)
same,GI50,U-251,28 µM (inactive)
same,GI50,EKVX,17.9 µM (inactive)
same,GI50,UO-31,18.5 µM (inactive)
same,GI50,TK-10,18.1 µM (inactive)
same,GI50,UACC-62,16.8 µM (inactive)
same,GI50,LXFL 529,15.4 µM (inactive)
same,GI50,SW-620,12.6 µM (inactive)
same,GI50,BT-549,19.4 µM (inactive)
same,GI50,NCI-H23,15.9 µM (inactive)
same,GI50,COLO 205,10.2 µM (inactive)
same,GI50,SK-OV-3,15.7 µM (inactive)
same,GI50,MDA-N,17.3 µM (inactive)
same,GI50,SF-539,17.6 µM (inactive)
same,GI50,M19-MEL,15.6 µM (inactive)
same,GI50,M14,18.6 µM (inactive)
same,GI50,OVCAR-8,18.7 µM (inactive)
same,GI50,A498,> 64.1 µM (inactive)
same,GI50,T47D,22 µM (inactive)
same,GI50,DLD-1,15.6 µM (inactive)
same,GI50,SK-MEL-2,20.8 µM (inactive)
same,GI50,HT-29,20 µM (inactive)
same,GI50,HOP-18,20.4 µM (inactive)
same,GI50,SF-268,22.4 µM (inactive)
same,GI50,SNB-78,25.2 µM (inactive)
same,GI50,K562,6.43 µM (inactive)
same,GI50,786-0,16.9 µM (inactive)
same,GI50,ACHN,18.5 µM (inactive)
same,GI50,SF-295,30.5 µM (inactive)
same,GI50,KM-20L2,19.7 µM (inactive)
same,GI50,HCC 2998,17.5 µM (inactive)
same,GI50,HCT-15,16.6 µM
same,GI50,IGROV-1,18.8 µM (inactive)
same,GI50,OVCAR-4,18.2 µM (inactive)
same,GI50,UACC-257,18 µM (inactive)
same,GI50,MCF7,24.8 µM (inactive)
same,GI50,HOP-62,> 59.4 µM (inactive)
same,GI50,MOLT-4,4.28 µM (inactive)
same,GI50,NCI-H226,24.8 µM (inactive)
same,GI50,PC-3,18.5 µM (inactive)
same,GI50,CAKI-1,7.33 µM (inactive)
same,GI50,NCI-H460,> 87.9 µM (inactive)
same,GI50,HCT-116,16.2 µM (inactive)
same,GI50,KM12,20.8 µM (inactive)
same,GI50,LOX IMVI,13.8 µM (inactive)
same,GI50,MDA-MB-435,19.2 µM (inactive)
same,GI50,RXF 393,16.4 µM (inactive)
same,GI50,CCRF-CEM,5.87 µM (inactive)
